From patent US6624188B1, “Method of treatment with compounds having retinoid-like activity and reduced skin toxicity and lacking teratogenic effects” (Allergan, Inc., priority 1992, dated 2003)

System: tissue transglutaminase (tTGASE) in HL-60 cells
Assay: Tissue Transglutaminase Assay (tTGASE) in HL-60 Cells
Assay type: cell-based
Conditions: FIGS. 6-9
Description: Other assays in which the retinoid like activity of the compounds used in accordance with the invention are confirmed are the HL-60 transglutaminase induction and HL-60 differentiation assay, the procedures of which are described as follows.
HL-60 cells were grown as a suspension culture in T-162 cm^2 flasks in serum-free RPMI 1640 medium supplemented with insulin (5 μg/ml), transferrin (5 μg/ml), and selenium (3 nM). The cells (1×10^6 cells/well, in 6-well dishes) were treated with serial dilutions of test compounds in the above RPMI 1640 medium which was additionally supplemented with […] dibutyryl cyclic adenosine monophosphate, a component found to be necessary for efficient differentiation of the cells. Ethanol was used in the vehicle control cultures. After 1 days of incubation at 37° C. in a 7.5% CO2 incubator, the cells were collected in a set of tubes and pelleted by centrifugation. The cells were lyzed in a buffer containing 20 mM Tris-HCl, pH 7.5, 1 mM EDTA, and 0.5% Triton X-100. An aliquot of the cell lysate was assayed for tTGASE activity in a reaction mixture containing 20 mM Tris-HCl, pH 7.5, 5 mM CaCl2, 2 mg/ml dimethylcasein, 15 mM B-mercaptoethanol and 50 μCi/ml [2,3-^3H] putrescine dihydrochloride. The reaction was carried out for 60 minutes in a 37° C. shaking water bath. The reaction was stopped by an addition of 10% trichloroacetic acid containing 0.1% putrescein. An aliquot of the stopped reaction mixture was spotted on Whatman 3 MM filter discs. The filter discs, along with the control blank filter discs, were washed twice with 5% trichloroacetic acid containing 0.1% putrescein and twice with methanol. After drying under a heat lamp, the radioactivity in the filter discs was determined by scintillation counting. An aliquot of the cell lysates was also assayed for […] by the Bradford method (Bio-Rad). After subtracting the radioactivity from the control blank filter discs, the data were calculated and expressed as pmol/min/mg protein.
As is well understood in the art, induction of tranglutaminase activity in the just-described assay is an early marker of retinoid like activity.

## C/C(=C\c1ccc(C(=O)O)cc1)c1ccc2c(c1)C(C)(C)CCC2(C)C [AGN 191183, reference compound]
  induction of transglutaminase activity: inactive
